Earlier results in patent US11395811B2, “Compositions comprising a fatty acid oil mixture comprising EPA and DHA in free acid form and a surfactant, and methods and uses thereof” (ProNova BioPharma Norge AS, priority 2009, dated 2022).

settings: Brij surfactants, Table 2

| HLB Value | Substance |
| --- | --- |
| 5.3 | Polyoxyethylene (2) cetyl ether [Brij ® 52] |
| 4.9 | Polyoxyethylene (2) oleyl ether [Brij ® 92V] |
| 4 | Polyoxyethylene (2) oleyl ether [Brij ® 93] |
| 9.7 | Polyoxyethylene(4) lauryl ether [Brij ® 30] |
| 12.4 | polyethylene glycol oleyl ether [Brij ® 96V] |
| 4.9 | polyoxyethylene (2) stearyl ether [Brij ® 72] |
| 18 | polyoxyethylene (100) stearyl ether [Brij ® 700] |

same assay, conditions: Myrj surfactants, Table 5

| Substance | HLB Value |
| --- | --- |
| polyoxyethylene monostearate [Myrj ® 45] | 11.1 |
| polyoxyethylene monostearate [Myrj ® 49] | 15.0 |
| polyoxyethylene monostearate [Myrj ® 52] | 16.9 |
| polyoxyethylene monostearate [Myrj ® 53] | 17.9 |

same assay, conditions: Tween surfactants, Table 4

| Substance | HLB Value |
| --- | --- |
| polyoxyethylene (20) sorbitan monolaurate [Tween ® 20] | 16.0 |
